The test system of the test is AKT. The test is described as follows: Western blot of AKT protein levels and downstream signaling in BT474 cells. It counts as cell-based, human. The note with it: Western blot (FIGS. 1, 3, 4). How it is done:
PC-3, U87MG, HCC1143, MDA-MB-231, MDA-MB-468, BT474 and MCF-7 cell lines were purchased from ATCC. Cell lines were regularly tested in the lab for mycoplasma. All cells were cultured at 37° C. and 5% CO2. PC-3, U87MG, MDA-MB-231, MCF-7 and BT474 cells were cultured in 1×DMEM (Corning, 10-013-CV) with 10% fetal bovine serum (Atlanta Biologicals S11150) and 1× Penicillin/Streptomycin. HCC1143 cells were cultured in RPMI (Corning, 10-040-CV) medium with 10% fetal bovine serum (Atlanta Biologicals S11150) and 1× Penicillin/Streptomycin. Cells were split using 0.05% or 0.25% trypsin (Corning 25-051-Cl or 25-053-Cl, respectively) before they reached full confluence and media was changed every 3-4 days. Cells were treated with compounds individually at different concentrations for 24 hrs. Cells were treated with DMSO, VHL, or PML alone as controls.
Cells were lysed in 2× sample buffer (125 mM Tris-HCl at pH 6.8, 10% βME, 2% SDS, 20% glycerol, 0.05% Bromophenol Blue, 8 M urea). Protein lysates were loaded into 4-12% Bis-Tris gels and resolved by electrophoresis. Samples were then blotted on PVDF membrane (Millipore IPVH00010) using the wet transfer technique (Invitrogen). Membranes were blocked in 5% milk-TBST for 1 hour, washed in TBST for 10 min, and incubated in primary antibody in 5% milk-TBST or 5% BSA-TBST at 4° C. for 16 h. Membranes were rinsed (3×6 min) in TBST and incubated in horseradish peroxidase-conjugated secondary antibodies in 5% milk-TBST for 1 hour and rinsed again in TBST (3×6 min). Membranes were visualized using the chemiluminescence system (Thermo 34080, 37075) on autoradiography film (Denville E3018). Primary Antibodies: R-actin (Sigma A5316), p-AKT (Ser473 CST-9721), total AKT (CST-9272), p-S6 (Ser240/244, CST-5364), p-PRAS40 (Thr246, CST-2997). Secondary Antibodies: Mouse (Thermo 31432), Rabbit (Thermo 31460).
On to `NC1(C(=O)N[C@@H](CCN2CCN(C(=O)CCOCCOCCOCCNc3cccc4c3C(=O)N(C3CCC(=O)NC3=O)C4=O)CC2)c2ccc(Cl)cc2)CCN(c2ncnc3[nH]ccc23)CC1` (stereo partly drawn) [XF050-31, 4-amino-N-((1S)-1-(4-chlorophenyl)-3-(4-(3-(2-(2-(2-((2-(2,6-dioxopiperidin-3-yl)-1,3-dioxoisoindolin-4-yl)amino)ethoxy)ethoxy)ethoxy)propanoyl)piperazin-1-yl)propyl)-1-(7H-pyrrolo[2,3-d]pyrimidin-4-yl)piperidine-4-carboxamide], for which the “suppression of AKT protein level and AKT activity” value (shortened to “suppression”) was “effective in suppressing both AKT protein level and AKT activity”. For the molecule `C[C@@H]1C[C@@H](O)c2ncnc(N3CCN(C(=O)[C@H](CNCCNC(=O)CCOCCOCCNc4cccc5c4C(=O)N(C4CCC(=O)NC4=O)C5=O)c4ccc(Cl)cc4)CC3)c21` (stereo partly drawn) [XF048-1, N-(2-(((N)-2-(4-chlorophenyl)-3-(4-((5R,7R)-7-hydroxy-5-methyl-6,7-dihydro-5H-cyclopenta[d]pyrimidin-4-yl)piperazin-1-yl)-3-oxopropyl)amino)ethyl)-3-(2-(2-((2-(2,6-dioxopiperidin-3-yl)-1,3-dioxoisoindolin-4-yl)amino)ethoxy)ethoxy) propanamide], the “suppression” value is “effective in suppressing both AKT protein level and AKT activity”. As for `C[C@@H]1C[C@@H](O)c2ncnc(N3CCN(C(=O)[C@H](CNCCC(=O)NCCOCCOCCOCCNc4cccc5c4C(=O)N(C4CCC(=O)NC4=O)C5=O)c4ccc(Cl)cc4)CC3)c21` (stereo partly drawn) [XF048-8, 3-(((S)-2-(4-chlorophenyl)-3-(4-((5R,7R)-7-hydroxy-5-methyl-6,7-dihydro-5H-cyclopenta[d]pyrimidin-4-yl)piperazin-1-yl)-3-oxopropyl)amino)-N-(2-(2-(2-(2-((2-(2,6-dioxopiperidin-3-yl)-1,3-dioxoisoindolin-4-yl)amino)ethoxy)ethoxy)ethoxy)ethyl)propanamide], the “suppression” value is “effective in suppressing both AKT protein level and AKT activity”.

As to `C[C@@H]1C[C@@H](O)c2ncnc(N3CCN(C(=O)[C@H](CNCCNC(=O)CCOCCOCCOCCOCCNc4cccc5c4C(=O)N(C4CCC(=O)NC4=O)C5=O)c4ccc(Cl)cc4)CC3)c21` (stereo partly drawn) [XF048-3, N-(2-(((S)-2-(4-chlorophenyl)-3-(4-((5R,7R)-7-hydroxy-5-methyl-6,7-dihydro-5H-cyclopenta[d]pyrimidin-4-yl)piperazin-1-yl)-3-oxopropyl)amino)ethyl)-1-((2-(2,6-dioxopiperidin-3-yl)-1,3-dioxoisoindolin-4-yl)amino)-3,6,9,12-tetraoxapentadecan-15-amide], the “suppression” value is “effective in suppressing both AKT protein level and AKT activity”. As to `Cc1ncsc1-c1ccc(CNC(=O)[C@@H]2C[C@@H](O)CN2C(=O)[C@@H](NC(=O)CCCCCCCCCNC(=O)CCNC[C@@H](C(=O)N2CCN(c3ncnc4c3[C@H](C)C[C@H]4O)CC2)c2ccc(Cl)cc2)C(C)(C)C)cc1` [XF038-165A, (2S,4R)-1-((S)-2-(10-(3-(((S)-2-(4-chlorophenyl)-3-(4-((5R,7R)-7-hydroxy-5-methyl-6,7-dihydro-5H-cyclopenta[d]pyrimidin-4-yl)piperazin-1-yl)-3-oxopropyl)amino)propanamido)decanamido)-3,3-dimethylbutanoyl)-4-hydroxy-N-(4-(4-methylthiazol-5-yl)benzyl)pyrrolidine-2-carboxamide], the “suppression” value is “effective in suppressing both AKT protein level and AKT activity”.

The values above are taken from patent publication US11472799B2, “Serine threonine kinase (AKT) degradation / disruption compounds and methods of use” (Icahn School of Medicine at Mount Sinai, priority 2018, dated 2022).
